Key:
[1] = test system: JB6 P+ cells; experiment: Anchorage-independent cell growth assay (EGF-induced neoplastic transformation); assay type: cell-based, mouse; conditions: EGF 10 ng/ml, different concentrations
Description: Cells were exposed to EGF (10 ng/ml) and treated with increasing concentrations of compound 1. Representative photographs are shown and data are presented as mean values±S.D. from triplicate experiments. […] Cells were treated with different concentrations of compound 1 for several days and cell proliferation was determined by a crystal violet staining assay.
Cells (8×10^3/well) were seeded into 6-well plates with 0.3% Basal Medium Eagle agar containing 10% FBS with epidermal growth factor (EGF, 10 ng/ml) and different concentrations of compound 1 and then cultured for 1 to 2 weeks. Colonies were scored under a microscope using the Image-Pro PLUS (v6.) computer software program (Media Cybernetics. Rockville, Md.).

[2] = target: T1, TOPK (Homo sapiens, UniProt Q96KB5); experiment: Pull-down assay with HaCaT cell lysates; assay type: binding; conditions: HaCaT cell lysates 500 μg, Western blot
T1 construct: endogenous in cells; host or cells: HaCaT
T1 sequence (Q96KB5 1-322): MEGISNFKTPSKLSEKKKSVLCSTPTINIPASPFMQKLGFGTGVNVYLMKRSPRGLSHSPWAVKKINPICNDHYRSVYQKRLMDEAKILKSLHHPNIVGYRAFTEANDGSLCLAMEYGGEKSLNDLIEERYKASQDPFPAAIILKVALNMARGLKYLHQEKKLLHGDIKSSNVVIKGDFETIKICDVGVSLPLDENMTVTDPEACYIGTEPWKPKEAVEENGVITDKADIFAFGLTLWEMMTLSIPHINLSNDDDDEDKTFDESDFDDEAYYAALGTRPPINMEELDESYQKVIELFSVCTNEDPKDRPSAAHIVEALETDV
Description: (§1) Active TOPK (200 ng) was incubated with different concentrations of ATP (0, 10 or 100 μM) and then mixed with compound 1-conjugated Sepharose 4B beads or Sepharose 4B beads. Proteins were pulled down and analyzed by Western blot. Data are representative of 3 independent experiments that gave similar results. FIGS. 2C and 2D show compound 1 binds to either TOPK (2C) or MEK1/2 (2D) ex vivo. Lysates from HaCaT cells (500 μg) were incubated with compound 1-conjugated Sepharose 4B beads or Sepharose 4B beads alone and the pulled-down proteins were analyzed by Western blot. Data are representative of 3 independent experiments that gave similar results. FIGS. 2E and 2F show compound 1 inhibits TOPK kinase (2E) activity but not MEK1 kinase (2F) activity in vitro. Active TOPK (200 ng) was mixed with compound 1 (0, 0.5, 1, 3, or 5 μM) or HI-032 (TOPK inhibitor, 10 μM) and then incubated with a [γ-^32P] ATP mixture. Similarly, MEK1 (200 ng) was mixed with compound 1 (0, 0.5, 1, 3, 5, or 10 μM) or PD098059 (MEK1 inhibitor, 5 μM) and then incubated with a [γ-^32P] ATP mixture. For 2E and 2F, the results are visualized by autoradiography and Coomassie blue staining serves as a loading control. Data are representative of 3 independent experiments that gave similar results. […]

[3] = test system: MEK1/2; experiment: Pull-down assay with HaCaT cell lysates; assay type: binding, human; conditions: HaCaT cell lysates 500 μg, Western blot
Description: as §1

[4] = test system: AP-1 activity in JB6 P+ cells; experiment: AP-1 luciferase reporter assay, SUV-induced; assay type: cell-based, mouse; conditions: JB6 P+ cells, 1.25, 2.5 or 5 μM, dose-dependently
Description: The cells were cultured, treated for 4 h with different concentrations of compound 1 and then exposed to SUV (60 kJ UVA/m^2 and 2.9 kJ UVB/m^2), followed by an additional 15-minute incubation. Cells were harvested and the levels of phosphorylated and total proteins were determined by Western blot analysis with specific antibodies as indicated. […] The cells were cultured and treated with different concentrations of compound 1 for 24 h. Cells were harvested and the levels of phosphorylated and total proteins were determined by Western blot analysis with specific antibodies as indicated. […] For the luciferase assay, JB6 P+ cells stably transfected with an AP-1 luciferase reporter plasmid were cultured. After starvation for 24 h, cells were treated for 1 h with compound 1 (0, 1.25, 2.5, or 5 μM). Cells were then exposed to SUV (60 kJ UVA/m^2 and 2.9 kJ UVB/m^2) and harvested 3 h later. Luciferase activity was measured and AP-1 activity is expressed relative to control cells without SUV treatment. […] Knockdown of TOPK in A431 cell line (left). […] Luciferase and 3-galactosidase activities were measured using reagents included in the reporter assay system (right). […] Significant differences were evaluated using one-way ANOVA and the asterisks (*) indicate a significant effect (*, p<0.05; **, p<0.001; ***, p<0.0001). […]

O=C1Nc2ccc(C34CC5CC(CC(C5)C3)C4)cc2C1=NO [compound 1, 5-(adamantan-1-yl)-3-(hydroxyimino)indolin-2-one]
EGF-induced colony formation [1]: attenuated
binding of TOPK to compound-conjugated beads [2]: detected in the compound 1-conjugated beads group but not in the beads only group
binding of MEK1/2 to compound-conjugated beads [3]: detected in the compound 1-conjugated beads group but not in the beads only group
SUV-induced transactivation of AP-1 [4]: inhibited
